PMC11111408, “Concurrent inhibition of oncogenic and wild-type RAS-GTP for cancer therapy” (Nature, 2024)
Like-named read-outs stand apart in the source and are kept apart here.

Test system: panel of 183 cancer cell lines
Assay: Cell panel of 183 cancer cell lines, viability (CTG) at Crown Bioscience
Format: cell-based
Settings: Homo sapiens
Source text: The panel consisted of cell lines with any substitution at position 12 of KRAS, NRAS or HRAS (KRAS(G12X), NRAS(G12X), HRAS(G12X)); substitutions in KRAS, NRAS or HRAS at any position other than 12, 13 and 61 (KRAS(other/VUS), NRAS(other/VUS), HRAS(other/VUS)); other oncogenic mutations in the RAS pathway (ABL1, ALK, ARAF, BRAF, CBL, EGFR, ERBB2, ERBB3, ERBB4, ERRFI1, FGFR1, FGFR2, FGFR3, FGFR4, FLT3, HRAS, IGF1R, JAK2, KIT, MAP2K1, MAP2K2, MAPK1, MET, NF1, NRAS, NTRK1, NTRK2, NTRK3, PDGFRA, PTPN11, RAC1, RAF1, RASA1, RET, RIT1, ROS1 and SOS1); and no oncogenic mutations in the RAS pathway. […] Cells were incubated for 120 h, and cell viability was determined using the CellTiter-Glo Luminescent Cell Viability Assay (CTG) (Promega, G7572) according to the manufacturer’s instructions.

CCn1c(-c2cc(N3CCN(C4CC4)CC3)cnc2[C@H](C)OC)c2c3cc(ccc31)-c1csc(n1)C[C@H](NC(=O)[C@H]1[C@@H]3COC[C@@H]31)C(=O)N1CCC[C@H](N1)C(=O)OCC(C)(C)C2 [RMC-7977]
EC50 (786-0, read-out: RMC-7977 EC50 (M), 786O, RAS pathway WT, Kidney): > 1e-06 M
EC50 (A 172, read-out: RMC-7977 EC50 (M), A172, RAS pathway WT, Brain&Nerves): 1.19e-07 M
EC50 (A549, read-out: RMC-7977 EC50 (M), A549, KRAS G12S, Lung): 5.13e-09 M
EC50 (A-375, read-out: RMC-7977 EC50 (M), A375, BRAF V600E, Skin): > 1e-06 M
EC50 (A-427, read-out: RMC-7977 EC50 (M), A427, KRAS G12D, Lung): 4.79e-09 M
EC50 (AN3-CA, read-out: RMC-7977 EC50 (M), AN3CA, RAS pathway WT, Uterus): 2.87e-08 M
EC50 (ASPC1, read-out: RMC-7977 EC50 (M), ASPC1, KRAS G12D, Pancreas): 2.63e-09 M
EC50 (AU565, read-out: RMC-7977 EC50 (M), AU565, RAS pathway WT, Breast): > 1e-06 M
EC50 (BRAF^MUT Other cell lines, read-out: median EC50): 7.54e-08 M
EC50 (BRAF^V600E cell lines, read-out: median EC50): > 1e-06 M
EC50 (BXPC-3, read-out: RMC-7977 EC50 (M), BXPC3, BRAF mut other, Pancreas): 2.97e-08 M
EC50 (CAL-51, read-out: RMC-7977 EC50 (M), CAL51, NRAS Y137H, Breast): 2.88e-08 M
EC50 (CAL-62, read-out: RMC-7977 EC50 (M), CAL62, KRAS G12R, HN/Thyroid): 2.29e-09 M
EC50 (CAPAN-1, read-out: G12X (62), RMC-7977 EC50 (CTG), CAPAN1, KRAS G12X): 1.41e-09 M
EC50 (CAPAN-1, read-out: RMC-7977 EC50 (M), CAPAN1, KRAS G12V, Pancreas): 1.41e-09 M
EC50 (CFPAC-1, read-out: G12X (62), RMC-7977 EC50 (CTG), CFPAC1, KRAS G12X): 2.95e-09 M
EC50 (CFPAC-1, read-out: RMC-7977 EC50 (M), CFPAC1, KRAS G12V, Pancreas): 2.95e-09 M
EC50 (CHL-1, read-out: RMC-7977 EC50 (M), CHL1, RAS pathway WT, Skin): 2.61e-08 M
EC50 (CHP-212, read-out: RMC-7977 EC50 (M), CHP212, NRAS Q61K, Brain&Nerves): 1.58e-09 M
EC50 (COLO 201, read-out: RMC-7977 EC50 (M), COLO201, BRAF V600E, Large intestine/Colorectum): > 1e-06 M
EC50 (COR-L23, read-out: G12X (62), RMC-7977 EC50 (CTG), CORL23, KRAS G12X): 2.75e-09 M
EC50 (COR-L23, read-out: RMC-7977 EC50 (M), CORL23, KRAS G12V, Lung): 2.75e-09 M
EC50 (Calu-1, read-out: RMC-7977 EC50 (M), CALU1, KRAS G12C, Lung): 6.61e-10 M
EC50 (Calu-6, read-out: RMC-7977 EC50 (M), CALU6, KRAS Q61K, Lung): 1.86e-09 M
EC50 (Capan-2, read-out: G12X (62), RMC-7977 EC50 (CTG), CAPAN2, KRAS G12X): 3.31e-10 M
EC50 (Capan-2, read-out: RMC-7977 EC50 (M), CAPAN2, KRAS G12V, Pancreas): 3.31e-10 M
EC50 (CoC1, read-out: RMC-7977 EC50 (M), COC1, KRAS G12D, Ovary): 1.58e-09 M
EC50 (DLD-1, read-out: RMC-7977 EC50 (M), DLD1, KRAS G13D, Large intestine/Colorectum): 4.57e-08 M
EC50 (DMS-53, read-out: RMC-7977 EC50 (M), DMS53, RAS pathway WT, Lung): 7.15e-08 M
EC50 (DMS-114, read-out: RMC-7977 EC50 (M), DMS114, RAS pathway WT, Lung): 7.09e-07 M
EC50 (DU-145, read-out: RMC-7977 EC50 (M), DU145, RAS pathway WT, Prostate): 1.72e-08 M
EC50 (DV-90, read-out: RMC-7977 EC50 (M), DV90, KRAS G13D, Lung): 2.95e-08 M
EC50 (EBC-1, read-out: RMC-7977 EC50 (M), EBC1, MET amp, Lung): 1.13e-09 M
EC50 (FTC-133, read-out: RMC-7977 EC50 (M), FTC133, NF1 LOF, HN/Thyroid): > 1e-06 M
EC50 (HCC44, read-out: RMC-7977 EC50 (M), HCC44, KRAS G12C, Lung): 5.25e-09 M
EC50 (HCC70, read-out: RMC-7977 EC50 (M), HCC70, RAS pathway WT, Breast): > 1e-06 M
EC50 (HCC78, read-out: RMC-7977 EC50 (M), HCC78, ROS1 fusion, Lung): 7.49e-09 M
EC50 (HCC827, HCC827, RTKMUT/fusion, read-out: EC50): 3.03e-09 M
EC50 (HCC827, read-out: RMC-7977 EC50 (M), HCC827, EGFR mut, Lung): 3.03e-09 M
EC50 (HCC1187, read-out: RMC-7977 EC50 (M), HCC1187, RAS pathway WT, Breast): 2.7e-07 M
EC50 (HCC1428, read-out: RMC-7977 EC50 (M), HCC1428, RAS pathway WT, Breast): > 1e-06 M
EC50 (HCC1500, read-out: RMC-7977 EC50 (M), HCC1500, RAS pathway WT, Breast): 5.01e-08 M
EC50 (HCC2279, RTKMUT/fusion, read-out: EC50): 4.52e-09 M
EC50 (HCC2935, read-out: RMC-7977 EC50 (M), HCC2935, EGFR mut, Lung): 2.39e-09 M
EC50 (HCC4006, HCC4006, RTKMUT/fusion, read-out: EC50): 2.39e-09 M
EC50 (HCC4006, read-out: RMC-7977 EC50 (M), HCC4006, EGFR mut, Lung): 2.39e-09 M
EC50 (HCT-8, read-out: RMC-7977 EC50 (M), HCT8, KRAS G13D, Large intestine/Colorectum): 3.02e-08 M
EC50 (HCT-15, read-out: RMC-7977 EC50 (M), HCT15, KRAS G13D, Large intestine/Colorectum): 2.75e-07 M
EC50 (HCT-116, read-out: RMC-7977 EC50 (M), HCT116, KRAS G13D, Large intestine/Colorectum): 6.61e-09 M
EC50 (HEC-1-A, read-out: RMC-7977 EC50 (M), HEC1A, KRAS G12D, Uterus): 1.74e-09 M
EC50 (HGC-27, read-out: RMC-7977 EC50 (M), HGC27, NF1 LOF, Stomach): > 1e-06 M
EC50 (HPAC, read-out: RMC-7977 EC50 (M), HPAC, KRAS G12D, Pancreas): 1.1e-08 M
EC50 (HPAF-II, read-out: RMC-7977 EC50 (M), HPAFII, KRAS G12D, Pancreas): 3.24e-09 M
EC50 (HT-1080, read-out: RMC-7977 EC50 (M), HT1080, NRAS Q61K, Soft tissue): 2.34e-09 M
EC50 (HepG2, read-out: RMC-7977 EC50 (M), HEPG2, NRAS Q61L, Liver): 6.76e-09 M
EC50 (Hs766T, read-out: RMC-7977 EC50 (M), HS766T, KRAS Q61H, Pancreas): > 1e-06 M
EC50 (Hs-578T, read-out: RMC-7977 EC50 (M), HS578T, HRAS G12D, Breast): 1.45e-08 M
EC50 (HuCCT-1, read-out: RMC-7977 EC50 (M), HUCCT1, KRAS G12D, Liver/Bile duct): 5.13e-09 M
EC50 (HuP-T4, read-out: RMC-7977 EC50 (M), HUPT4, KRAS G12V, Pancreas): 2.51e-09 M
EC50 (JHH7, read-out: RMC-7977 EC50 (M), JHH7, RAS pathway WT, Liver): 8.08e-08 M
